Reference: patent US20030211170A1, “Use of physiologically acceptable vanadium compounds, salts and complexes” (GHO'ST HOLDING B.V., priority 1997, published 2003)

Tests used:
[1] = tested on: deep burn wounds (skin/dermis structures); experiment: Deep burn wound model in the Yorkshire pig; assay type: in vivo, Yorkshire White; conditions: administered intravenously in a single dose
From the text: The Yorkshire pig has been chosen as the experimental animal because of all animal species this domestic pig seems to be the one with morphological and functional skin characteristics nearest to human skin and so best fulfils the requirements of a model for human skin. In basic architecture it resembles human skin in the relative thickness of the epidermis and dermis, the presence of epidermal ridges, a distinct dermal papillary layer and a deep layer of subdermal fat. Compared to human the elastic fibre content of porcine dermis is relatively low, but higher than in any other species. […] Studies on the proliferation rate of porcine epidermis show parallels with those of humans. The keratinous proteins are similar. Unlike the skin of rodents, the follicular pattern in pigs and humans is relatively sparse and arranged as single hairs or in groups of two or three follicles. […] The regulation of body temperature by the skin is more evident in humans than in the pig. In the skin of the pig no eccrine glands are found. It does have apocrine glands, but their role in thermoregulation remains debatable. The vascular anatomy of pig skin consists of a three layered network; lower, mid-dermal and sub epidermal. The size, orientation and distribution of the vessels are strikingly similar to human skin, but it does differ from humans in that the sub epidermal network is less dense. The vascularisation of the lower region of the follicle corresponds to that in humans. The healing of deep dermal burns, which depends on this phenomenon, might also be analogous. Studies on the thermal properties of porcine skin as a function of depth have been performed by measuring the tissue water content.
Protocol 1a: Twelve identical deep burn wounds were inflicted in each animal. The animal model used is developed in the Burn Research Institute (Beverwijk, The Netherlands) and is a standard for all of the experimental burn wound research. The model is also accepted by the animal experimental commission of the University of Amsterdam. […]

[2] = tested on: hearts of phenobarbital anaesthetized rats (myocardial tissue); experiment: Infarct size after 60 minutes coronary artery occlusion and 180 minutes of reperfusion in anaesthetized rats; assay type: in vivo, rat; conditions: normothermia (36.5-37.5° C.), 3.3 mg/kg bodyweight i.v. bolus in 10 minutes, 25 minutes prior to CAO, 60 min CAO, 180 min reperfusion, mean ± standard error margin, n=6, P<0.001 vs control (69±2%)
Experimental: Area at risk (AR) and infarcted area (IA) were determined in hearts of phenobarbital anaesthetized rats after 60 minutes coronary artery occlusion (CAO) and 180 minutes of reperfusion. […] The mean AR expressed as percentage of the left yentricle was not different between the control and the experimental group (42±2% and 42±3%, respectively).

Cc1occc(=O)c1[O-].Cc1occc(=O)c1[O-].[O]=[V+2] [bis(maltolato)oxovanadium(IV)]
contractions of scars [1]: considerably reduced
healing of burn wounds [1]: faster healing
structures present in the dermis (deep vascular plexus, hair-adnexes (sebaceous glands), sweat glands) [1]: protected
IA/AR ratio (infarcted area / area at risk) [2]: 45±3%
